The source of these data is US20220281930A1, “COMPOSITIONS AND METHODS FOR THE TREATMENT OF PATHOLOGICAL PAIN AND ITCH” (DUKE UNIVERSITY, priority 2019, published 2022).

For data set [1], the system named is nerve injury pain. The data set can be described thus: Nerve constriction injury (PSNL) pain model, mechanical withdrawal. In kind it is in vivo, mouse. The method, then: For pain-related behavior, mechanical allodynia was assessed with von Frey filaments (Ugo Basile, Italy). The mice were placed on a 5×5-mm wire-mesh grid floor in individual compartments to avoid visual stimulation and allowed to adapt for 0.5 h prior to the von Frey test. The von Frey filament was then applied to the middle of the plantar surface of the hind paw with 5 g force. The withdrawal responses following the hind paw stimulation were measured at least three times, and the mechanical allodynia, which was defined as an increase in the number of withdrawal responses to the stimulation, was compared.
Thus, in vivo, KP functions as an analgesic when administered systemically in injury-related pain models.
Next, whether the analgesic effects of KP were mediated centrally at the spinal cord level was assessed.
Mechanical withdrawal was measured thresholds after nerve constriction injury (PSNL) (FIG. 12B and FIG. 12C). […] Thus, δ-cat(S276A) spinal transgenesis via AAV9 is sufficient to evoke analgesia after nerve constriction injury, to lesser degree also with δ-cat(WT). Importantly, δ-cat(S276A) spinal transgenesis was accompanied by increased expression of KCC2 in the SCDH. […] Moreover, our discovery points toward a genetically-encoded approach that can be developed for translation into clinical use as an alternative or complement to KP-related small molecules.

In data set [2] the test system is KCC2 mRNA. Kind of data set: KCC2 mRNA RT-qPCR in microdissected spinal cord dorsal horn. In kind it is in vivo, mouse. Particulars: AAV9 i.t; vs tdTomato control. The method, then:
oligodT-initiated reverse transcription of 1 μg total RNA, DNA-se treated, was subjected to RT-qPCR using primers specific for KCC2 for rat and KCC2 for human sequences, normalized for neuronal βIII-tubulin, as previously described (Yeo et al., 2009, J Neurosci 29:14652-14662). For cultured neurons, total RNA was extracted from pelleted cells, and for spinal cord tissue it was extracted from microdissected lumbar spinal cord dorsal horn.
With the aforementioned findings and in view of the SCDH as the likely site of analgesic action of KP (Coull et al., 2003, Nature 424:938-942; Gagnon et al., 2013, Nat Med 19:1524-1528), SCDH KCC2 expression and function in nerve injury and response to KP was assessed. […] To measure KCC2 mRNA, SCDH Rexed-layers I-II were microdissected with laser capture followed by RT-qPCR. SCDH KCC2 protein expression was measured morphometrically after KCC2 immunolabeling using SCDH laminae I-II as the region-of-interest (FIG. 5B).
A general note: In qPCR the cycle at which signal appears reflects the starting amount.

Data set [3] concerns δ-cat. Kind of data set: Nuclear transfer of transfected human δ-cat in N2a cells. Particulars: mutation vs δ-cat(WT), without KP. Format: cell-based, mouse. The text has this:
(§1) Plasmid containing human δ-catenin (CTNND2, NM_001288717) open reading frame was obtained from GeneCopeia (EX-A4285-M02) and cloned into pCMV-ENTER vector (Origene PS100001). Site-directed mutagenesis using Phusion DNA Polymerase enzyme (Thermofisher F549L) in conjunction with complementary primers bearing the specific mutation were used to generate the S276A […] mutation S276A. PCR was followed by Dpn1 enzyme digestion to remove parental plasmid DNA. All constructs were verified by sequencing. pCS-CMV-tdTomato plasmid was obtained from Addgene (cat. #30530).
To investigate the relevance of δ-cat residue S276, N2a neural cells were studied because these cells transfect at higher efficiency than primary cortical neurons. In our cultures, N2a cells expressed neuronal ßIII-tubulin in elongated processes as determined by immune-labeling as an indicator of their neuronal differentiation. […] This increase in nuclear transfer was very similar to the trafficking we recorded in primary cortical neurons, thus validating the cell line. […] Of note, there was no increase of nuclear transfer of δ-cat(S276A) upon KP treatment (FIG. 8C and FIG. 8D).

For data set [4], the system named is KCC2 mRNA. The data set can be described thus: KCC2 mRNA in differentiated N2a cells transfected with δ-cat constructs. Format: cell-based, mouse. Particulars: δ-cat construct vs control transfection.
From the text: as §1
Total RNA was isolated from cultured cell samples using Directzol RNA miniprep kit (ZymoResearch). The protocol includes DNAse digestion to exclude genomic DNA from preparations. […] Gene expression was assessed by quantitative real-time PCR using 2×SYBR Green Master Mix (Qiagen) and a three-step cycling protocol (anneal at 60° C./elongate at 72° C., denature at 95° C.). […] The amount of target messenger RNA (mRNA) in the experimental group relative to that in the control was determined from the resulting fluorescence and threshold values (Ct) using the ΔΔCt method. βIII-tubulin was used as housekeeping gene.
Next, the question of whether δ-cat, when expressed as a spinal transgene in sensory relay neurons, will facilitate analgesia in nerve constriction injury was assessed. […]

Data set [5] concerns neuronal [Cl—]i. The data set can be described thus: Clomeleon chloride imaging in rat primary cortical neurons. Format: cell-based. Particulars: VU0240551 2.5 μM add-on; both vehicle-treated and KP-treated. Here is the method: Chloride imaging of primary cultured cortical neurons was conducted as previously described (Kuner and Augustine, 2000, Neuron 27:447-459; Liedtke et al., 2013, Small 9:1066-1075; Yeo et al., 2009, J Neurosci 29:14652-14662). A Clomeleon expression plasmid was transfected into primary cortical neurons by electroporation (Amaxa Nucleofector Device). Transfected neurons were verified by yellow fluorescent protein (YFP) fluorescence, and ratiometric images (excitation at λ=434 nm, dual emission at λ=485 and 535 nm; for resting chloride, six stable frames at […] were captured, which were averaged) were acquired using RATIOTOOL program. Calibration of Clomeleon signals (535 nm/485 nm emission ratio) was performed by using tributyltin-nigericin to establish a standard curve, which was then normalized for measured intraneuronal pH to take into account the pH sensitivity of Clomeleon.

The subject of data set [6] is KCC2 mRNA. The data set can be described thus: KCC2 mRNA RT-qPCR in rat primary cortical neurons. In kind it is cell-based. Conditions: rat primary cortical neurons; dose-dependent, FIG. 10. The method, then: Total RNA was isolated from cultured cell samples using Directzol RNA miniprep kit (ZymoResearch). The protocol includes DNAse digestion to exclude genomic DNA from preparations. Total RNA (1 μg) was reverse transcribed using oligo primers (dT) and SuperScriptIII first-strand synthesis kit (Invitrogen). Gene expression was assessed by quantitative real-time PCR using 2×SYBR Green Master Mix (Qiagen) and a three-step cycling protocol (anneal at 60° C./elongate at 72° C., denature at 95° C.). Specificity of primers was verified by dissociation/melting curve for the amplicons when using SYBR Green as a detector. All reactions were performed in triplicates. The amount of target messenger RNA (mRNA) in the experimental group relative to that in the control was determined from the resulting fluorescence and threshold values (Ct) using the ΔΔCt method. βIII-tubulin was used as housekeeping gene. oligodT-initiated reverse transcription of 1 μg total RNA, DNA-se treated, was subjected to RT-qPCR using primers specific for KCC2 for rat and KCC2 for human sequences, normalized for neuronal βIII-tubulin, as previously described (Yeo et al., 2009, J Neurosci 29:14652-14662). For cultured neurons, total RNA was extracted from pelleted cells, and for spinal cord tissue it was extracted from microdissected lumbar spinal cord dorsal horn.

Consider “δ-cat(S276A): human δ-catenin S276A mutant transgene (SEQ ID NO:32), as plasmid or AAV9 vector driven by human synapsin promoter”, for which the “mechanical withdrawal thresholds after PSNL” value in data set [1] (AAV9-huSyn, 5×10^9 viral genomes i.t, vs tdTomato control, to d18) is recorded as “Significantly less sensitization”. Also, the “KCC2 mRNA in microdissected SCDH” value in data set [2] is reported as “significantly increased”. For the same molecule, in data set [3], the “nuclear transfer of the transfected construct” value is given as “increases nuclear transfer”. The “KCC2 mRNA expression” value in data set [4] was “slightly elevated”.
`Cc1csc(NC(=O)CSc2ccc(-c3ccccc3)nn2)n1` [VU0240551]: the “[Cl—]i with add-on KCC2-transport blocker” value in data set [5] is given as no less than 120 mM. Also, the “effect of i.t co-application with KP on KP analgesia” value in data set [1] (day 7, 3 h, 4 h, 5 h after i.t injection) is “eliminates the central analgesic effects of KP”.
In the case of `O=C1[C@H](Cc2ccc(O)cc2)N2C(=O)CCN(C(=O)NCc3ccccc3)[C@H]2CN1Cc1cccc2ccccc12` [ICG-001], in data set [6], the “KCC2 mRNA expression” value is listed as “significantly decreases”.
